Earlier results as cited in paper PMC10703426, “New characterization of dihydroergotamine receptor pharmacology in the context of migraine: utilization of a β-arrestin recruitment assay” (Frontiers in Neurology, 2023).

Test system: 5-HT1D
Set-up: method as in doi:10.1186/1129-2377-14-S1-P75
Conditions: cited from earlier work

In the case of `CNS(=O)(=O)Cc1ccc2[nH]cc(CCN(C)C)c2c1` [sumatriptan succinate], the dissociation half-life is given as 5.4 min.
